Consider 15 compounds from ChEMBL document CHEMBL5120753, “Isolation and biological activity of azocine and azocane alkaloids” (Bioorg Med Chem, 2022).

The IC50 is the concentration that inhibits the measured activity by half. As a reminder, the MIC50 is an inhibitory concentration at the 50% level, which refers to growth in some studies and to a panel of isolates in others. One may read the MIC as the lowest concentration found to suppress growth.

In brackets after ≈: the same amount, converted by molar mass.

Series [1] relates to Plasmodium falciparum. The experiment in a line: Antiplasmodial activity against chloroquine sensitive Plasmodium falciparum W2 assessed as cell growth inhibition. The format is functional, organism-based.
Series [2] concerns Plasmodium falciparum. The experiment in a line: Antiplasmodial activity against chloroquine sensitive Plasmodium falciparum D6 assessed as cell growth inhibition. The format is functional, organism-based.
Series [3] deals with Replicase polyprotein 1ab (Severe acute respiratory syndrome coronavirus 2) (UniProt P0DTD1). The experiment in a line: Binding affinity to SARS-CoV-2 3C-like protease assessed as change in gibbs free energy.
The subject of another series is N2a. Description: Neuroprotective activity against paraquat induced mouse Neuro2a cells assessed as reduction in cell viability at 1 uM pretreated for 1 hr followed by paraquat addition measured after 24 hrs by MTT method relative to control. The conditions noted are these: time 25 hrs. The format is functional.
Series [4] concerns Mycobacterium tuberculosis. Description: Antimycobacterial activity against Mycobacterium tuberculosis H37Rv assessed as inhibition of bacterial growth. The format is functional.
Series [5] relates to Staphylococcus aureus. The experiment in a line: Antibacterial activity against Staphylococcus aureus assessed as bacterial growth inhibition. The format is functional.
For the next series, the system named is Plasmodium berghei. The experiment in a line: Antiplasmodial activity against Plasmodium berghei infected in ip dosed Swiss albino mouse assessed as growth inhibition at asexual erythrocytic stage. The format is functional. Further details: scale not given: the % may be the effect or the level left.
A further series relates to KB. Description: Cytotoxicity against human KB cells assessed as cell growth inhibition. The format is functional, cell-based.
The test system of the next series is L1210. The experiment in a line: Cytotoxicity against mouse L1210 cells assessed as cell growth inhibition. The format is functional, cell-based.
A further series has as its system NIH3T3. Description: Cytotoxicity against mouse NIH3T3 cells assessed as cell growth inhibition incubated for 48 hrs by alamar blue dye-based fluorometric analysis. The format is functional. The conditions noted are these: NIH3T3, 48 h.
The test system of series [6] is Plasmodium falciparum. The experiment in a line: Antimalarial activity against Plasmodium falciparum K1 infected in human RBC assessed as parasite growth inhibition measured after 48 hrs by optical microscopy. The format is functional, organism-based. The conditions noted are these: K1, Erythrocyte.
Series [7] deals with Plasmodium falciparum. Description: Antiplasmodial activity against Plasmodium falciparum 3D7 infected in human erythrocytes assessed as cell growth inhibition incubated for 72 hrs by parasite lactate dehydrogenase assay. The format is functional, organism-based. The conditions noted are these: 3D7, 72 h.
A short description of series [8]: Cytotoxicity against multidrug resistant human VJ300 cells expressing P-gp assessed as cell growth inhibition measured after 72 hrs by MTT assay. The format is functional, cell-based. The conditions noted are these: VJ-300, 72 h. A general note: Tetrazolium assays rely on reduction of a dye to a coloured formazan, in cell work by metabolically active cells.
Another series deals with B16. Description: Cytotoxicity against mouse B16 cells assessed as cell growth inhibition measured after 72 hrs by MTT assay. The format is functional, cell-based. The conditions noted are these: B16, 72 h.
A short description of series [9]: Antagonist activity at alpha-adrenergic receptor in rat aortic strips assessed as receptor mediated adrenolytic activity. Conditions: read-out: pA2 (converted).
Series [10] is described as follows: Antagonist activity at serotonin receptor in rat aortic strips assessed as receptor mediated anti-serotoninergic activity. The conditions noted are these: read-out: pA2 (converted).
A short description of series [11]: Induction of nitric oxide production in Rabbit aortic endothelial cell at 0.1 ug/ml measured after 48 hrs by […] analysis. The format is functional, Oryctolagus cuniculus. Conditions: dose 0.1 µg/ml.
For another series, the target named is Acetylcholinesterase (Homo sapiens, UniProt P22303). The experiment in a line: Inhibition of human acetylcholinesterase.
Sequence of Acetylcholinesterase (P22303 whole entry): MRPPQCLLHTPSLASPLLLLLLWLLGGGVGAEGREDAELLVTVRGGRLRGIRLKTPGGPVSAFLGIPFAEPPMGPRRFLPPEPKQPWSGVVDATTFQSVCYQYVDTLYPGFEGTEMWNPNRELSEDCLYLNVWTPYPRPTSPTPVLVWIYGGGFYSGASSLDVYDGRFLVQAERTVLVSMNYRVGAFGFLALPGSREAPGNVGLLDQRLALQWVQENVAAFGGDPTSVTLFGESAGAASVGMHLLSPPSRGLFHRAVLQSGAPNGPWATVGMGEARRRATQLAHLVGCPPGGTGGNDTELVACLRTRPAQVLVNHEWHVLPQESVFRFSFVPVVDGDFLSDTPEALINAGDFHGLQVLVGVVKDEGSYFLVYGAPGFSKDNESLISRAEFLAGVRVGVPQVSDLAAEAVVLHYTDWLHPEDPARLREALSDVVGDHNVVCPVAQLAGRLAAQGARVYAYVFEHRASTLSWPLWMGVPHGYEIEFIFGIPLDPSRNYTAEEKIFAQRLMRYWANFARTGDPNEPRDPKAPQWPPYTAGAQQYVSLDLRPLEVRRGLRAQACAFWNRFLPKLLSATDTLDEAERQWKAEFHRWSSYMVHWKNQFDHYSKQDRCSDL
Another series concerns the target Cholinesterase (Homo sapiens, UniProt P06276). The experiment in a line: Inhibition of human BChE.
The next series concerns B16-F10. Description: Induction of nitric oxide production in mouse B16-F10 cells at 1 ug/ml measured after 48 hrs by […] analysis. The format is functional. The conditions noted are these: dose 1 µg/ml.
In series [12] the test system is Plasmodium falciparum. Description: Antiplasmodial activity against chloroquine-resistant Plasmodium falciparum W2 assessed as cell growth inhibition incubated for 24 hrs by [3H]-hypoxanthine based scintillation counter analysis. The format is functional, organism-based.
In series [13] the test system is Plasmodium falciparum. Description: Antiplasmodial activity against chloroquine-sensitive Plasmodium falciparum 3D7 assessed as cell growth inhibition incubated for 24 hrs by [3H]-hypoxanthine based scintillation counter analysis. The format is functional, organism-based.
A short description of series [14]: Inhibition of human beta-secretase.
Series [15] relates to Staphylococcus aureus. The experiment in a line: Antibacterial activity against Staphylococcus aureus assessed as zone of inhibition measured after 16 hrs by disk diffusion assay. The format is functional. (In general: A growth-free zone around the sample is the usual read-out of agar diffusion tests.)
Series [16] can be described thus: Toxicity in Artemia salina assessed as mortality measured after 24 hrs by microscopic analysis. The conditions noted are these: read-out: Activity.
Series [17] in a line: Cytotoxicity against human SOSP-9607 cells assessed as cell growth inhibition incubated for 48 hrs by microplate reader based analysis. The format is functional. Conditions: SOSP-9607, 48 h.
Another series relates to SAOS-2. The experiment in a line: Cytotoxicity against human SAOS-2 cells assessed as cell growth inhibition incubated for 48 hrs by microplate reader based analysis. The conditions noted are these: SAOS-2, 48 h. The format is functional.
The next series deals with MG-63. Description: Cytotoxicity against human MG-63 cells assessed as cell growth inhibition incubated for 48 hrs by microplate reader based analysis. Conditions: MG-63, 48 h. The format is functional.
Another series has as its system U2OS. Description: Cytotoxicity against human U2OS cells assessed as cell growth inhibition incubated for 48 hrs by microplate reader based analysis. The format is functional.

Sequence of Cholinesterase (P06276 whole entry): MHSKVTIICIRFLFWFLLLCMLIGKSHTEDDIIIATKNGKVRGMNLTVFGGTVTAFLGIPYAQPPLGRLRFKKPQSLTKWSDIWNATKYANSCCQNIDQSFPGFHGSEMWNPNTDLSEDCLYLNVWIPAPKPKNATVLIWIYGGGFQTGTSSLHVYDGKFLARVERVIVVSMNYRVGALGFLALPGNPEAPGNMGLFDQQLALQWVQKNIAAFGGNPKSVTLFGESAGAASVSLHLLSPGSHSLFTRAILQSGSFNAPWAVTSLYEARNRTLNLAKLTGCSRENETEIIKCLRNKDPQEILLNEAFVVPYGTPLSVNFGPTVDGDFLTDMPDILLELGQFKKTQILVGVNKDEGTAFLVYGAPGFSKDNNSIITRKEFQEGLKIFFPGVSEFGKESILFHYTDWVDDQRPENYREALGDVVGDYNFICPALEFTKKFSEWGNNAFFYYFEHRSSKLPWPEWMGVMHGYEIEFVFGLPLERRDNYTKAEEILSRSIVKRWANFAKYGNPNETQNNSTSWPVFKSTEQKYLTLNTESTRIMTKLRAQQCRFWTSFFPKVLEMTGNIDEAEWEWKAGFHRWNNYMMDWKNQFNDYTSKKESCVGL

For the compound `O=C1NCCc2c[nH]c3ccc4c(c23)[C@H]1[C@@H](c1ccc2c(c1)OCO2)O4`, the concentration for half-maximal inhibition (IC50) came out at 4.41 µg/mL (≈ 12.7 µM) with Plasmodium falciparum [1] and 3.93 µg/mL (≈ 11.3 µM) in the series on Plasmodium falciparum [2]. In addition, the deltaG in series [3] was -9.1 kcal/mol.

As to `CC1(C)/C=C\N2C(=O)[C@]3(O)[C@@H](O)CCN3C(=O)[C@@H]2Cc2c1[nH]c1ccccc21`, in the series with N2a, the Activity was found to be 30.3%.

`O[C@]12C=C(c3nccc4c3[nH]c3ccccc34)[C@@H]3CCN(CCCC/C=C\CC1)C[C@@]31C[C@@H]3/C=C\CCCCN3[C@H]12` [MANZAMINE A]: the MIC50 in series [4] came to 1.5 µg/mL (≈ 2.73 µM). Further, the minimal inhibitory concentration (MIC) in the series with Staphylococcus aureus [5] was 6.3 µg/mL (≈ 11.5 µM). Moreover, the Activity with Plasmodium berghei is on record as 90%.

With `CC1CC2C[C@]34C(=O)CCCN3CCC[C@@]2(O)C(=O)C14` (some centres not stated), the IC50 with KB and with L1210 was greater than 10 µg/mL each time.

For the compound `CC[C@@H]1C2CCN(C)C1c1c([nH]c3ccc(OC)cc13)C2=O` (some centres not stated), the IC50 is greater than 50 µg/mL with NIH3T3 and 16.7 µM in the series on Plasmodium falciparum [6].

For `COc1cc([C@H]2Oc3ccc4[nH]cc5c4c3[C@@H]2C(=O)NCC5)ccc1OC(=O)C(C)(C)C`, in the series on Plasmodium falciparum [7], the concentration for half-maximal inhibition (IC50) was determined as 123 µM.

Turning to `C=C1CC[C@@]23CC[C@@]45C(C2)[C@]4(CCN13)c1cc(OC)ccc1N5C(=O)OC`, the IC50 in series [8] worked out at 4.6 µg/mL (≈ 12.6 µM); in the series with B16, 7.2 µg/mL (≈ 19.6 µM).

Regarding `CN1CCc2ccccc2-c2cc(O)c(O)cc2C1`, the figures for the Kb in series [9] and in series [10] were 0.02 µM and 3.02 µM, respectively.

As to `C=C1c2[nH]c3ccc(OC)cc3c2C2[C@@H](CC)C1CCN2C` (some centres not stated), the Activity in series [11] was 20.9 µM; in the series with B16-F10 it was 41.1 µM. The IC50 amounted to 279 µM against Acetylcholinesterase; 24 µM at Cholinesterase; 0.75 µg/mL (≈ 2.53 µM) in the series with Plasmodium falciparum [12]; 11.9 µg/mL (≈ 40.1 µM) in the series on Plasmodium falciparum [13]; 180 µM in series [14].

For the compound `C=C1C=C[C@@]23CC[C@@]45C(C2)[C@]4(CCN13)c1cc(OC)ccc1N5C(=O)OC`, the IC50 is 4.6 µg/mL (≈ 12.6 µM) in series [8] and 2.8 µg/mL (≈ 7.68 µM) in the series with B16.

Take `COc1cc2c(cc1OC)-c1ccccc1CCN(C)C2`: the Kb in series [9] was 0.107 µM; in [10], 0.102 µM.

As for `CO[C@H]1/C=C/O[C@@]2(C)Oc3c(C)c(O)c4c(O)c(c(/C=N/N5CCN(C)CC5)c(O)c4c3C2=O)NC(=O)/C(C)=C\C=C\[C@H](C)[C@H](O)[C@@H](C)[C@@H](O)[C@@H](C)[C@H](OC(C)=O)[C@@H]1C` [RIFAMPIN], the MIC50 in series [4] came to 0.5 µg/mL (≈ 0.608 µM).

With `COc1cc([C@H]2Oc3ccc4[nH]cc5c4c3[C@@H]2C(=O)NCC5)ccc1O`, the “diameter of the inhibition zone (DIZ)” value in the series with Staphylococcus aureus [15] came out at 19 mm. Besides, the 50% inhibitory concentration (IC50) with Plasmodium falciparum [1] and with Plasmodium falciparum [2] was greater than 10 µg/mL each time. Moreover, the mortality at 24 h in [16] came out at 90%.

Turning to `COC(=O)C1=C2Nc3c(O)cccc3[C@]23CC[N+]2(C)C[C@H](C(C)=O)[C@H]1C[C@H]32` (some centres not stated), the IC50 (in series [17]; in the series with SAOS-2; in the series with MG-63; in the series with U2OS) was 9.2 µM each time.

Regarding `CCC(=O)Oc1ccc([C@H]2Oc3ccc4[nH]cc5c4c3[C@@H]2C(=O)NCC5)cc1OC`, the IC50 in the series on Plasmodium falciparum [7] worked out at 36.6 µM.
